{"source": "patent US20140228287A1", "about": "“1-[(3-CYANO-PYRIDIN-2-YL)METHYL]-3-METHYL-7-(2-BUTYN-1-YL)-8-[3-(R)-AMINO-PIPERIDIN-1-YL]-AXANTHINE FOR THE TREATMENT OF A METABOLIC DISORDER OF A PREDOMINANTLY CARNIVOROUS NON-HUMAN ANIMAL” (BOEHRINGER INGELHEIM VETMEDICA GMBH, priority 2010, published 2014)", "key": {"[1]": {"test_system": "blood glucose", "assay": "Glucose monitoring in obese/non-obese cats, 7 days once daily dosing", "format": "in vivo, cat", "conditions": "9 mg once daily 7 days; for Glucose, Max / Glucose, Mean / Glucose, Median / Glucose, Min: all 14 obese and non-obese cats, 168 hour period", "description": "The aim of this exploratory, randomized, placebo controlled crossover study was to investigate the effect of 1-[(3-cyano-pyridin-2-yl)methyl]-3-methyl-7-(2-butyn-1-yl)-8-[3-(R)-amino-piperidin-1-yl]-xanthine monohydrochloride on DPP IV activity and on glucose concentrations in obese and non-obese cats after repeated oral administration over seven days.\nFourteen clinically healthy male and female (8 obese and 6 non-obese) purpose-bred cats were used in this study. The animals were randomly allocated to two groups of cats, obese and non-obese, and treated in a cross-over design with 9 mg 1-[(3-cyano-pyridin-2-yl)methyl]-3-methyl-7-(2-butyn-1-yl)-8-[3-(R)-amino-piperidin-1-yl]-xanthine monohydrochloride or placebo, once daily for 7 days, with a following wash-out period of 21 days.\nCats were fed once daily 40 min after administration of the compound or the placebo, respectively.\nTo allow a Continuous glucose monitoring (CGM) a Continuous glucose monitoring system (CGMS) was applied. To this end, on day 1 a Medtronic continuous glucose monitoring sensor (Guardian system; Medtronic Minimed, Northridge, Calif., USA) was placed interstitially. The skin was shaved, and then wiped several times with 70% alcohol. The sensor was inserted into the skin and secured to the skin with a cover provided by Medtronics, and Elasticon. The CGMS was calibrated 2 times daily using a glucometer. When a sensor became non-functional, a new sensor was placed. The sensors were placed between the shoulder blades. Data were recalled via a wireless system.\nAlso blood samples for were taken before and 6, 12, 24, 64, and 168 hours (3 ml each) after oral administration of the test compound or the placebo. Blood samples for the calibration of the CGMS were taken at least twice daily from day 1 to day 7 approximately twelve hours apart (0.2 ml of blood each time). Glucose measurements were performed using a glucometer (Presto WaveSense) and also a colorimetric glucose oxidase method (Genzyme Diagnostics PEI Incorporated; Charlottetown, Canada), reference method, at appropriate time points (0.2 ml each time; see results section). Interstitial glucose concentrations were followed with the continuous glucose monitoring system. After 7 days, the CGMS was removed.\nThe measured mean, median, min, and max glucose values for all 14 cats during a 168 hour testing period using the three glucose measurement methods are shown in Table 9."}, "[2]": {"assay": "Single dose study (1.0/5.0/10.0 mg/kg) in cats: adverse events", "format": "in vivo, cat", "conditions": "single oral 1, 5, 10 mg/kg", "method": "(§1) The aim of this study was to investigate the PK/PD behaviour of 1-[(3-cyano-pyridin-2-yl)methyl]-3-methyl-7-(2-butyn-1-yl)-8-[3-(R)-amino-piperidin-1-yl]-xanthine in the cat following a single oral administration of 0, 1, 5 and 10 mg/kg body weight (dosages were based on the free base: 1 mg 1-[(3-cyano-pyridin-2-yl)methyl]-3-methyl-7-(2-butyn-1-yl)-8-[3-(R)-amino-piperidin-1-yl]-xanthine monohydrochloride corresponds to 0.923 mg 1-[(3-cyano-pyridin-2-yl)methyl]-3-methyl-7-(2-butyn-1-yl)-8-[3-(R)-amino-piperidin-1-yl]-xanthine free base).\nTwelve clinically healthy male adult domestic short hair cats with a body weight range of 3.5-4.7 kg were used in this study. All animals were treated orally once via a stomach tube. Blood samples for pharmacokinetic and pharmacodynamic (DPP IV activity) investigations were drawn at 0 h (i.e. prior to treatment), 30 min as well as 1, 2, 4, 8, 8.5, 9, 12, 24, 36, 48, 72, 84 and 96 h after treatment. Blood samples for pharmacodynamic (glucagon-like peptide 1 concentrations) investigations were drawn at −16 (i.e. prior to feeding), −15.5, −15 h as well as at 8 h (i.e. prior to feeding), 8.5 and 9 h after treatment."}, "[3]": {"assay": "Multiple dose study (14 days) in cats: adverse events", "format": "in vivo, cat", "conditions": "1, 3, 9 mg/animal once daily oral for 14 days", "method": "as §1, with “effects” for “behaviour”, “cats” for “the cat”, “repeated” for “a single”, “3” for “5”, “9 mg/animal over 14 days corresponding to a dose of 0, 0.25, 0.75 and 2.25” for “10”, “for a cat weighing 4 kg. (Dosages” for “(dosages”\nFor this purpose, twelve clinically healthy male adult domestic short hair cats with a body weight range of 3.5-4.8 kg were used. The animals were randomly allocated to 4 groups, 3 animals per group. All animals were treated once daily orally for 14 days (i.e. on days 0-13). The test article was administered via capsules at doses of 1 (group II), 3 (group III) or 9 (group IV) mg of the monohydrochloride compound per animal; group I received placebo serving as controls. Blood samples for PK and PD (DPP IV activity) investigations were drawn at 0 h (i.e. prior to the 1st treatment), 0.5, 1, 2, 4, 8, 12 and 24 h after the 1st treatment as well as 24 h after the 3rd, 5th, 7th, 9th, 11th and 13th treatment and 0.5, 1, 2, 4, 8, 12 and 24 h after the 14th treatment."}, "[4]": {"molecular_target": "T1, DPP IV (Felis catus, UniProt Q9N2I7)", "T1 construct": "Blood samples for the determination of this compound and DPP IV activity were collected; from tissue; host or cells: plasma of domestic short hair / purpose-bred cats dosed orally", "T1 sequence (Q9N2I7 38-765 limits assumed)": "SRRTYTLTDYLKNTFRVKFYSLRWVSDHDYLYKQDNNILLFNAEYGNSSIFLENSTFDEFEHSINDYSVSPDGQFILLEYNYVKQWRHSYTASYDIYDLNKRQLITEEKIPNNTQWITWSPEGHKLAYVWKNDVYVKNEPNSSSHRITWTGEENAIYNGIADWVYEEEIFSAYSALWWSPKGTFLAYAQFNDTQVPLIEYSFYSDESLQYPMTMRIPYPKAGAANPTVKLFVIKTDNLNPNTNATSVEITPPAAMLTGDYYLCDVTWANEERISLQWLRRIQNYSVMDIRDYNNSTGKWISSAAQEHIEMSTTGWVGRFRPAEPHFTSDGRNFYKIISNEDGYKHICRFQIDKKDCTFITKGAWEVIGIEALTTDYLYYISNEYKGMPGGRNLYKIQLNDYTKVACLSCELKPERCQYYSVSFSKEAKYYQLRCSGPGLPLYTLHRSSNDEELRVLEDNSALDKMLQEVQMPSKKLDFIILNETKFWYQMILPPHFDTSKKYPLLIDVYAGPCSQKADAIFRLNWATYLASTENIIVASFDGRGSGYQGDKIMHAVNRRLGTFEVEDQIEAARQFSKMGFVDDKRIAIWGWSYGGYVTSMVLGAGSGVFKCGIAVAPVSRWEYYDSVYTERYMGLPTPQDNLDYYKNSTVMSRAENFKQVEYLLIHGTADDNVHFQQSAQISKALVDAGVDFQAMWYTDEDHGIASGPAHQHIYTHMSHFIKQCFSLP", "assay": "OGTT study in normal cats after 9 mg per cat: DPP IV activity", "format": "in vivo", "conditions": "9 mg per cat oral", "method": "An OGTT like in Example 11 was performed in […] beginning 1 h after oral administration of 9 mg 1-[(3-cyano-pyridin-2-yl)methyl]-3-methyl-7-(2-butyn-1-yl)-8-[3-(R)-amino-piperidin-1-yl]-xanthine monohydrochloride or placebo (2 groups with 6 animals each; 3 male and 3 females per group)."}, "[5]": {"conditions": "Glucose oxidase (reference method)"}}, "note": "Counter-ions that a name gives are not always drawn."}
{"smiles": "CC#CCn1c(N2CCC[C@@H](N)C2)nc2c1c(=O)n(Cc1ncccc1C#N)c(=O)n2C", "note": "[1-[(3-cyano-pyridin-2-yl)methyl]-3-methyl-7-(2-butyn-1-yl)-8-[3-(R)-amino-piperidin-1-yl]-xanthine monohydrochloride]", "values": [{"measurement": "Glucose, Max", "setting": "[1]; CGM", "result": 126, "unit": "mg/dL"}, {"measurement": "Glucose, Mean", "setting": "[1]; CGM", "result": 94, "unit": "mg/dL"}, {"measurement": "Glucose, Median", "setting": "[1]; CGM", "result": 93, "unit": "mg/dL"}, {"measurement": "Glucose, Min", "setting": "[1]; CGM", "result": 66, "unit": "mg/dL"}, {"measurement": "Glucose, Max", "setting": "[1]; Glucometer", "result": 131, "unit": "mg/dL"}, {"measurement": "Glucose, Mean", "setting": "[1]; Glucometer", "result": 103, "unit": "mg/dL"}, {"measurement": "Glucose, Median", "setting": "[1]; Glucometer", "result": 101, "unit": "mg/dL"}, {"measurement": "Glucose, Min", "setting": "[1]; Glucometer", "result": 79, "unit": "mg/dL"}, {"measurement": "Glucose, Max", "setting": "[1]; [5]", "result": 142, "unit": "mg/dL"}, {"measurement": "Glucose, Mean", "setting": "[1]; [5]", "result": 93, "unit": "mg/dL"}, {"measurement": "Glucose, Median", "setting": "[1]; [5]", "result": 89, "unit": "mg/dL"}, {"measurement": "Glucose, Min", "setting": "[1]; [5]", "result": 71, "unit": "mg/dL"}, {"measurement": "daily blood glucose concentrations, treated vs placebo treated", "setting": "[1]; obese or non-obese cats", "result": "no difference in daily blood glucose concentrations"}, {"measurement": "adverse events", "setting": "[2]", "result": "No specific adverse events were observed"}, {"measurement": "adverse events", "setting": "[3]", "result": "No adverse events specifically attributable to the test article were noted"}, {"measurement": "inhibition of DPP IV activity", "setting": "[4]", "result": "more than 80%"}]}
